# Experimental data from patent US11932654B2, “Nimbolide analogs as anti-cancer agents and preparation thereof” (priority 2018, dated 2024).
# How the values were obtained:
# Format in all cases: cell-based
# [1] = tested on: DU-145 prostate cancer cell line; assay: In vitro anticancer activity, SRB assay, DU-145; conditions: Homo sapiens, 48 h, NA = Not Active
# Experimental: (§1) Cell culture: Human lung adenocarcinoma cell line (A549 cell line), pancreatic cancer cell line (Panc-1, Pan-02), prostate cancer cell line (DU145, PC3), Brest cancer cell line (MCF-7) was grown in DIEM (Dulbecco's modifications of eagle's medium with L-glutamine & 4.5 g/L glucose) supplemented with fetal bovine serum in a humidified atmosphere of a 5% CO2 at 37° C.
# (§2) In vitro anticancer activity: Cells were harvested from exponential phase cultures by trypsinization, counted and plated in 96-well plate. Optimal seeding densities for different cell lines in each plate were 5000 cells per well. After 24 h cells were treated with \ the newly synthesized compound at a dose range of 0.1-100 μm final concentration. Thereafter, cells were allowed to grow for 48 h before determination of cell survival by the SRB assay. Then the cells were fixed with 10% cold trichloroacetic acid for 1 h at 4° C. After two washes with deionized water, fixed cells were stained with 50 μL of SRB solution (1% in acetic acid) for 30 min and subsequently washed twice with 1% acetic acid to remove unbound stain. The plates were left to dry at room temperature and bound stain was solubilized with 100 μL of 10 mM buffered Tris base for reading the […] at 540 nm.
# [2] = tested on: A549 lung adenocarcinoma cell line; assay: In vitro anticancer activity, SRB assay, A549; conditions: Homo sapiens, 48 h, NA = Not Active
# Experimental: as §1, §2
# [3] = tested on: PC3 prostate cancer cell line; assay: In vitro anticancer activity, SRB assay, PC3; conditions: 48 h, NA = Not Active
# Experimental: as §1, §2
# [4] = tested on: MCF-7 breast cancer cell line; assay: In vitro anticancer activity, SRB assay, MCF-7; conditions: Homo sapiens, MCF7, 48 h, NA = Not Active
# Experimental: as §1, §2
# [5] = tested on: Panc-1 pancreatic cancer cell line; assay: In vitro anticancer activity, SRB assay, Panc-1; conditions: Homo sapiens, 48 h, NA = Not Active
# Experimental: as §1, §2
Compound,IC50 [1] [µM],IC50 [2] [µM],IC50 [3] [µM],IC50 [4] [µM],IC50 [5] [µM]
COC(=O)C[C@H]1[C@]2(C)C3=C(C)[C@H](c4ccoc4)C[C@@H]3O[C@@H]2[C@@H]2OC(=O)[C@]3(C)C(OCc4ccccc4)CC(=O)[C@@]1(C)C23 (stereo partly shown) [A2],1.45,13.1,1.01,4.72,8.78
COC(=O)C[C@H]1[C@]2(C)C3=C(C)[C@H](c4ccoc4)C[C@@H]3O[C@@H]2[C@@H]2OC(=O)[C@]3(C)C(C(O)c4ccc([N+](=O)[O-])cc4)=CC(=O)[C@@]1(C)C23 (stereo partly shown) [A3],9.31,12.2,9.08,4.74,7.79
COC(=O)C[C@H]1[C@]2(C)C3=C(C)[C@H](c4ccoc4)C[C@@H]3O[C@@H]2[C@@H]2OC(=O)[C@]3(C)C(Sc4cccc(N)c4)CC(=O)[C@@]1(C)C23 (stereo partly shown) [A7],,23.9,65.3,52.2,18.6
COC(=O)C[C@H]1[C@]2(C)C3=C(C)[C@H](c4ccoc4)C[C@@H]3O[C@@H]2[C@@H]2OC(=O)[C@]3(C)C(Nc4ccccc4)CC(=O)[C@@]1(C)C23 (stereo partly shown) [A8],,89.4,21,56.6,85.5

# More lines, now with the values ahead:
IC50 [1] [µM],IC50 [2] [µM],IC50 [3] [µM],IC50 [4] [µM],IC50 [5] [µM],Compound
7.91,60.8,20.6,17.1,1.04,COC(=O)C[C@H]1[C@]2(C)C3=C(C)[C@H](c4ccoc4)C[C@@H]3O[C@@H]2[C@@H]2OC(=O)[C@]3(C)C4CC4C(=O)[C@@]1(C)C23 (stereo partly shown) [A5]
75.1,67.2,79.1,32.5,32.9,COC(=O)C[C@H]1[C@]2(C)C3=C(C)[C@H](c4ccoc4)C[C@@H]3O[C@@H]2[C@@H]2OC(=O)[C@]3(C)CCC(=O)[C@@]1(C)C23 (stereo partly shown) [A6]
